Laboratory results published in patent US12539336B2, “Antibody, linkers, payload, conjugates and applications thereof” (GeneQuantum Healthcare (Suzhou) Co., Ltd., priority 2022, dated 2026).

Tests used:
[1] = test system: Trop2-positive cells BxPC-3 and Trop2-negative cells HepG2; assay: Bystander killing in BxPC-3/HepG2 co-culture assay (BxPC-3:HepG2=4:1); type: cell-based, human; conditions: effect example 1.1, conclusion
Experimental: (§1) A negative control group was set: 3 mL of 45% RPMI-1640+45% DMEM+10% FBS medium was added to each well. After the treatment, the cells were moved to the incubator and incubated for 96 h. After the incubation, cells were digested, and washed once with 1×PBS, then transferred to a flow tube, and centrifuged at 2000 rpm for 3 min. The supernatant was then discarded, and the cell amount and cell viability were detected. […] The cells were washed with 1×PBS, the supernatant was discarded after centrifugation, 200 μL of 5 μg/mL human IgG Fc antibody was added, and the resulting cells were continued to incubate at 4° C. for 30 min after mixing. Finally, the cells were washed with 1×PBS, the supernatant was discarded after centrifugation, and the cells were resuspended in PBS, detected by flow cytometry and analyzed by FlowJo software.

[2] = test system: Trop2-positive cells BxPC-3 and Trop2-negative HepG2 cells; assay: Bystander killing in BxPC-3/HepG2 co-culture assay (BxPC-3:HepG2=2:1); type: cell-based, human; conditions: effect example 1.3, conclusion
Experimental: as §1

With DS1062a the bystander killing effect [1] was “had bystander killing effects” and the bystander killing effect [2] was “had bystander killing effects”.
